# BindingDB's records for doi:10.3109/14756366.2013.823957 (National Tsing Hua University, 2014)
# Biological target: Cathepsin S (Homo sapiens, UniProt P25774)
# Assay: Cathepsin Activity Assay
# Conditions: pH 6.5; 25 °C
# Protocol: A microplate-based screening procedure was used to study the effect of inhibition of re-Cat S, re-Cat L and re-Cat K on several compounds. The assays were performed in quadruplicates at 25 °C in a buffer containing 50 mM MES, pH 6.5, 2.5 mM EDTA and 1 mM DTT for re-Cat S, or 100 mM NaOAc, pH 5.5, 1 mM DTT and 2 mM EDTA for re-Cat L, or 50 mM MES, pH 5.5, 5 mM DTT and 2.5 mM EDTA for re-Cat K. Each of tested compounds at 100 nM was incubated with 50 nM re-Cat S, 31.25 pM re-Cat L or 10 nM re-Cat K at 37 °C for 10 min before initiating the reaction with the addition of 5 μM relevant substrate (Z-Phe-Arg-AMC for Cat L and Cat K, and Z-Val-Val-Arg-AMC for Cat S), respectively [Ward et al., J. Med. Chem., 45:5471-82]. Reactions in microplates were kept at 37 °C for another 30 min and then to collect the fluorescent signals from each well in microplates. E64 and 1% DMSO were applied as positive and solvent control, respectively. Fluorimetric assays were performed at 37 °C on a Perkin Elmer LS55 fluorescence spectrophotometer (Waltham, MA) with excitation at 370 nm and emission at 460 nm wavelengths. The inhibitory ability of a tested compound was determined by decreased fluorescence compared to DMSO control.
# Sequence of Cathepsin S (P25774 whole entry): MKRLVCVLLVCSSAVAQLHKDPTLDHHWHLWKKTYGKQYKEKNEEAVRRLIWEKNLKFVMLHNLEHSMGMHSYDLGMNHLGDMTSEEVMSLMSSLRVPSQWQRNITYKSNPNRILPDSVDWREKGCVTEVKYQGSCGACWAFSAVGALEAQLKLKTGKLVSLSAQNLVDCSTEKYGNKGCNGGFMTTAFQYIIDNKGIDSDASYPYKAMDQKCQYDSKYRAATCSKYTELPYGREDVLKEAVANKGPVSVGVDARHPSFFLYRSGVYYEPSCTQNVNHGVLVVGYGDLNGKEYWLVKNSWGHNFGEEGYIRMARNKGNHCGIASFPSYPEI
row,Compound,IC50
1,"CCOC(=O)CNC(=O)C(=O)C(COCc1ccccc1)NC(=O)C(CC1CCCCC1)NC(=O)c1ccc(C(=O)OC)c(NC(=O)OC(C)(C)C)c1 (stereo not drawn) [Cathepsin S inhibitor alpha-ketoamide, 6n]",49.2 nM
2,"CCOC(=O)CNC(=O)C(=O)C(COCc1ccccc1)NC(=O)C(CC1CCCCC1)NC(=O)c1ccc(C(=O)OC)c(N)c1 (stereo not drawn) [Cathepsin S inhibitor alpha-ketoamide, 6p]",5.8 nM
3,"CCOC(=O)CNC(=O)C(=O)C(COCc1ccccc1)NC(=O)C(CC1CCCCC1)NC(=O)c1cc(OC)ccc1[N+](=O)[O-] (stereo not drawn) [Cathepsin S inhibitor alpha-ketoamide, 6e]",3.1 nM
4,"CC(C)(C)CC(C)(C)NC(=O)C(=O)C(COCc1ccccc1)NC(=O)C(CC1CCCCC1)NC(=O)N1CCOCC1 (stereo not drawn) [Cathepsin S inhibitor alpha-ketoamide, 6w]",3.1 nM
5,"CCOC(=O)CNC(=O)C(=O)C(COCc1ccccc1)NC(=O)C(CC1CCCCC1)NC(=O)c1cccc([N+](=O)[O-])c1 (stereo not drawn) [Cathepsin S inhibitor alpha-ketoamide, 6b]",2 nM
6,"CCOC(=O)CNC(=O)C(=O)C(COCc1ccccc1)NC(=O)C(CC1CCCCC1)NC(=O)N1CCOCC1 (stereo not drawn) [Cathepsin S inhibitor alpha-ketoamide, 6a]",4.4 nM
7,"CCOC(=O)CNC(=O)C(=O)C(COCc1ccccc1)NC(=O)C(CC1CCCCC1)NC(=O)c1cccc2c1C(=O)c1ccccc1-2 (stereo not drawn) [Cathepsin S inhibitor alpha-ketoamide, 6r]",8.8 nM
